Here are results for six compounds from patent USRE49311E1, “Bacillus thuringiensis RTI545 compositions and methods of use for benefiting plant growth and controlling plant pests” (priority 2016, dated 2022).

For assay [1], the system named is wireworm (Melanotus spp.). Kind of assay: In-furrow corn field trials, wireworm-infested plots (7 trials, North America). Conditions: vs untreated, average of 7 trials; bifenthrin 56 g ai/Ha, RTI545 3 × 10^11 CFU/Ha, tefluthrin 168 g ai/Ha. The assay is classed as in vivo. The text has this: (§1) In-furrow treatments of corn with RTI545 were studied in multiple field trials in various locations in North America to evaluate effectiveness against wireworm (Melanotus spp.) and corn rootworm (Diabrotica spp.). The effects on yield and crop damage of several treatments compared to untreated controls for the individual North America trials were aggregated and summarized as an average for the trial in the following tables as % yield increase and % reduction in damage compared to the untreated controls. Seven trials were evaluated for wireworm. Eighteen trials were evaluated for corn rootworm. Five trials with heavy damage from corn rootworm were averaged separately.

Assay [2] has as its system corn rootworm (Diabrotica spp.). Briefly: In-furrow corn field trials, corn rootworm-infested plots (18 trials, North America). Format: in vivo. Conditions: vs untreated, bifenthrin 112 g ai/Ha, RTI545 1.24 × 10^12 CFU/Ha, tefluthrin 168 g ai/Ha; for % Damage reduction, Heavy CRW Pressure / % Yield Increase, Heavy CRW Pressure: 5 trials; for % Damage reduction / % Yield Increase: 18 trials.
Excerpt: as §1

Assay [3] deals with root knot (RKN) nematode juveniles (J2). Briefly: Nematode chemotaxis assay on agar plates. Format: in vivo, Meloidogyne spp. Conditions: for Cf (chemotaxis factor) at 3 h / Cf (chemotaxis factor) at 5 h: Cf<0.5 repellent, >2 attractant. On the procedure: Similarly, activity of RTI545 against nematodes may also be due to compound(s) produced by the strain. A nematode chemotaxis assay on agar plates was conducted as described below to evaluate response of root knot (RKN) nematode juveniles (J2) to different concentrations of kanosamine and RTI545 supernatant in vitro.
The test arena is shown schematically in FIG. 6. Nine-cm-diameter Petri dishes were filled with 15 ml 0.75% Phytagel (including 0.1% MgSO4.7H2O). […] was used, instead of water agar, so that nematode tracks could be observed under a microscope. Wells of 0.5 cm diameter which can accommodate approximately 50 μl of solution were made at opposite sides of the dishes at 2 cm from the center. The test samples were applied in the wells and left to diffuse for 1 hour with lids on the dishes, so a gradient around the wells could be established. Then, 75-100 J2 stage root-knot nematodes suspended in 5 μl of sterile distilled water were placed by pipette in the center 1.5 cm-diameter circle of the plate. When the surface tension of the water suspension was lost, the dishes were covered with lids and incubated in the dark on a leveled platform at 25° C. for […]. After incubation the plates were transferred to 4° C. to stop nematode movement for scoring at 2 h, 3 h and 5 h after setup. Three replicates were done for each test material.
For scoring, the test arena was divided into sixteen zones, designated as 1-8 for attractive zones and a-h for repellent zones as shown in FIG. 6A. Nematodes attracted to the test substance would tend to move to the numbered (attractive) zones, resulting in clustering along the axis parallel to the orientation of the wells. Repelled nematodes would tend to move to the lettered (repellant) zones, resulting in clustering along the axis perpendicular to the orientation of the wells. The chemotaxis factor (Cf) was calculated by dividing the total number of nematodes in the attractant zones by the total number of nematodes in the repellent zones. A Cf greater than 2 meant attraction for the nematodes, while lower than 0.5 indicated repellence, and 0.5 to 2 was considered neutral.

The subject of assay [4] is root knot nematode (RKN) eggs. Briefly: Root knot nematode egg hatching assay, 24-well plates. Format: in vivo, Meloidogyne incognita/hapla. Conditions: for % Hatching after 7 days / % Hatching after 14 days: mean of 6 replicates ± SD. On the procedure: The following day, the optical density (OD) of 1:100 dilutions was measured at 600 nm to estimate the volume needed for inoculation of fermentation flasks. […] Bacteria were grown overnight (for 16 h) at 200 rpm at 30° C. Two ml of bacterial culture was saved to measure the OD and colony forming units (CFU). The remaining culture was centrifuged (2500 rpm, 15 min) and the supernatant was filter-sterilized through a 0.22 μm filter. […] The supernatant was kept at 4° C. until the initiation of the bioassay. […] A mixed culture of root knot nematodes (Meloidogyne incognita and M. hapla) was used. Nematode eggs were extracted from tomato roots by bleaching and cleaned using an Opti-prep centrifugation step followed by two washes in water. Before setting up the hatching assay, the percentage of early (eggs with a visible embryo) and late eggs (eggs with differentiated juveniles inside; […] Only fresh eggs (collected at the day of the initiation of the assay) were used for the bioassay. The assay was performed in 24-well tissue culture plates. […] Antibiotics were suspended in sterile distilled water. The final concentration of antibiotics in testing plates was 75 mg/L of penicillin and 75 mg/L of streptomycin. […] The addition of methyl cellulose increases the accuracy of adding the same number of inoculum to each treatment. The treatments were set up in 6 replications. Each plate was covered, wrapped in aluminum foil and placed in an incubator set at 25° C. […] For each time point and treatment, the percent hatching was calculated according to the formula: […] All treatments were supplemented with antibiotics (75 mg/L of penicillin and 75 mg/L of streptomycin) to prevent contamination. Data are means from 6 replicates± standard deviation of the means.

Assay [5] concerns Southern Corn Rootworm (SCRW) larvae. Briefly: SCRW larvae choice feeding assay of corn seedlings. The following applies: for Mean percent of SCRW larvae on treated portion of the filter paper / Mean percent of SCRW larvae on untreated portion of the filter paper: 3 days.
Description: Repellency was measured using a choice in vitro plate feeding assay of corn seedlings by SCRW larvae and scored after 72 hours as the percentage of SCRW larvae on the non-treated side of the plate. In the case of no repellency, an equal distribution of 50% on both the treated and non-treated half of the plate would be expected, indicating 0% repellency. In this experiment, the Bacillus thuringiensis RTI545 and Bacillus thuringiensis subsp. kurstaki HD-1 (HD-1), were evaluated in comparison to a water control after 3 days in the assay.
The choice feeding assay for SCRW larvae using corn seedlings was also repeated to compare RTI545 to another Bacillus thuringiensis strain FD30 and kanosamine. […] Repellency was measured using a choice in vitro plate feeding assay of corn seedlings by SCRW larvae and scored after 72 hours as the percentage of SCRW larvae on the non-treated side of the plate. In the case of no repellency, an equal distribution of 50% on both the treated and non-treated half of the plate would be expected, indicating 0% repellency.
The subject of a further assay is lesion nematode. Briefly: Soil drench tests against lesion nematode. Format: in vivo, Pratylenchus penetrans. From the text:
Similar tests wherein RTI545 was applied as a soil drench at the rate of 2.5×10^11 CFU/ha provided 71% reduction in lesion nematode numbers per root compared to 95% for abamectin. In soil drench tests applied to pots in the greenhouse with soil infested with lesion nematode eggs and adults (2000 individuals/pot) RTI545 at the rate of 2.5×10^13 CFU/ha provided 80% reduction in nematode numbers per root compared to 86% reduction by cadusafos.

Assay [6] relates to soybean cyst nematode (Heterodera glycines). Briefly: Soybean cyst nematode soil drench assay, greenhouse. Format: in vivo. The following applies: day 70.
Where [7] appears, read: kanosamine 100 μg/ml (alone or + FD30).
Where [8] appears, read: RTI545 2.5 × 10^12 CFU/ha, Abamectin 0.01 ppm, VENERATE XC 500 mg/plant.
[9] abbreviates: RTI545 2.5 × 10^13 CFU/ha, Abamectin 0.1 ppm.

Turning to `Cc1c(F)c(F)c(COC(=O)[C@@H]2[C@H](/C=C(\Cl)C(F)(F)F)C2(C)C)c(F)c1F` (racemic) [Tefluthrin], the “% Yield Increase” value in assay [1] is on record as 5%. Moreover, in assay [2], the “% Damage reduction, Heavy CRW Pressure” value turned out to be 52%; the “% Yield Increase, Heavy CRW Pressure” value turned out to be 16%; the “% Damage reduction” value came out at 46%; the “% Yield Increase” value was found to be 3%.
With `Cc1c(COC(=O)[C@@H]2[C@H](/C=C(\Cl)C(F)(F)F)C2(C)C)cccc1-c1ccccc1` (racemic) [Bifenthrin], the “% Yield Increase” value in assay [1] is given as 5%. In assay [2], the “% Damage reduction, Heavy CRW Pressure” value is on record as 45%; the “% Yield Increase, Heavy CRW Pressure” value is recorded as 11%; the “% Damage reduction” value is 42%; the “% Yield Increase” value is on record as 4%.
As to kanosamine, the “Cf (chemotaxis factor)” value in assay [3] (all tested kanosamine rates (1, 10 and 100 μg/ml) and all time points) is “higher than 0.5”. The “Cf (chemotaxis factor) at 3 h” value in assay [3] (kanosamine 1 μg/ml) turned out to be 1.0; in assay [3] (kanosamine 10 μg/ml) it was 0.6; in assay [3] (kanosamine 100 μg/ml) it was 0.6. Moreover, the “Cf (chemotaxis factor) at 5 h” value in assay [3] (kanosamine 1 μg/ml) stood at 1.0; in assay [3] (kanosamine 10 μg/ml), 0.7; in assay [3] (kanosamine 100 μg/ml), 0.7. In assay [4] (after seven days), the “Hatching rate higher than in water control” value is on record as “up to 80%”. The “% Hatching after 7 days” value in assay [4] (kanosamine 1 μg/ml) stood at 35.9 ± 5.2%; in assay [4] (kanosamine 10 μg/ml), 39.4 ± 3%; in assay [4] (kanosamine 100 μg/ml), 32.4 ± 4.8%. The “% Hatching after 14 days” value in assay [4] (kanosamine 1 μg/ml) came out at 40.1 ± 6.8%; in assay [4] (kanosamine 10 μg/ml) it was 42.1 ± 12.1%; in assay [4] (kanosamine 100 μg/ml) it was 41.6 ± 6.8%. In addition, the “Mean percent of SCRW larvae on treated portion of the filter paper” value in assay [5] (kanosamine 10 μg/ml) and in assay [5] (setting [7]) was 16.67% each time. The “Mean percent of SCRW larvae on untreated portion of the filter paper” value in assay [5] (kanosamine 10 μg/ml) and in assay [5] (setting [7]) was 83.33% each time. Also, the “Repellent effects on SCRW” value in assay [5] (all dilution rates between 0.1 μg/ml and 100.0 μg/ml, at 24 h, two separate bioassays) is recorded as “repellent effects”. For the same compound, the “Feeding damage on corn” value in assay [5] (at 3 d, choice assay) is given as “minimal feeding damage”. Further, the “Repellency to SCRW” value in assay [5] (second test, filter paper treated with 30.0 ug/ml, out to 5 days) was “complete repellency”. For the same compound, the “Avoidance response of SCRW” value in assay [5] (treated filter paper at 10 and 100 μg/ml) amounted to 80%.
Consider `CCOP(=O)(SC(C)CC)SC(C)CC` (stereo not shown) [cadusafos], for which the “Reduction in nematode numbers per root” value in the assay with lesion nematode (soil drench to greenhouse pots, eggs and adults 2000 individuals/pot, RTI545 2.5×10^13 CFU/ha) is 86%.
For the compound abamectin, in assay [4] (abamectin 0.1 ppm), the “% Hatching after 7 days” value was 24.4 ± 2.9% and the “% Hatching after 14 days” value is on record as 27.8 ± 5.7%. Besides, in assay [4] (abamectin 1.0 ppm), the “% Hatching after 7 days” value was determined as 4.9 ± 0.9% and the “% Hatching after 14 days” value amounted to 8.5 ± 1.6%. In assay [4] (rate of 1 ppm, after 14 days), this compound yielded an Egg hatching inhibition of 72%. For the same compound, the “Reduction in lesion nematode numbers per root” value in the assay with lesion nematode (soil drench, RTI545 2.5×10^11 CFU/ha) is 95%. Also, in assay [6] (setting [8]), the “% Reduction of cysts” value is listed as 79% and the “Number of cysts extracted” value was 31. For the same compound, in assay [6] (setting [9]), the “% Reduction of cysts” value came to 96% and the “Number of cysts extracted” value is on record as 7.
Turning to `CC(=O)O` [Acetic Acid], in assay [3] (acetic acid 1%), the “Cf (chemotaxis factor) at 3 h” value worked out at 0.45 and the “Cf (chemotaxis factor) at 5 h” value turned out to be 0.4. Moreover, the “Cf (chemotaxis factor) at 2 h” value in assay [3] (acetic acid 1%, data not shown) is “neutral”.
